Laboratory results from patent US20260283917A1, “ANTI-WRINKLE AGENT” (SHISEIDO COMPANY, LTD., priority 2023, published 2026).

Tests used:
MMP-1 = MMP-1 gene expression analysis by real-time PCR in dermal fibroblasts; format: cell-based; details: Homo sapiens, NB1RGB, 48 h, read-out: MMP-1 gene expression level
Protocol: (§1) As the control, a medium not comprising these components was used.
(§2) RNA concentrations were calculated using OD260 and diluted with TE Buffer to adjust the RNA concentrations to 10 μg/mL.
(§3) Reverse transcription of RNA was carried out using SuperScript™ IV VILO™ Master Mix with ezDNase (Cat No. 11766050, Invitrogen, USA). 4 μL of SuperScript™ IV VILO™ Master Mix and 6 μL of Nuclease-free Water were added per well in an 8-tube strip and heated at 25° C. for 10 min, 50° C. for 10 min, and 85° C. for 5 min using real-time PCR (QuantStudio (registered trademark) 3, Applied Biosystems, USA) to synthesize cDNA. 10 μL of TaqMan (registered trademark) Fast Advanced Master Mix (Cat No. 4444557, Applied Biosystems, USA), 1 μL of TaqMan Gene Expression, 7 μL of UltraPure™ Distilled Water (Invitrogen, Cat No. 10977-015, USA), and 2 μL of cDNA were added per well in a PCR plate and sealed. A primer (Hs00899658_ml) for MMP-1 and a primer (Hs00153510_ml) for NEP; and a primer (Hs02786624_g1) for GAPDH as an internal standard gene; were used to carry out real-time qPCR, the threshold cycle (Ct) value of each of the MMP-1 gene and the NEP gene in the medium supplemented with each component was calculated, and then Ct value was corrected with GAPDH to obtain a ΔCt value. Assuming that gene level doubles per cycle, when gene expression level of the control was set at 1, the gene expression level in the medium supplemented with each component was determined. In the analysis of gene expression level, the average value of 24-well plate×3 wells was used for each treatment group.

NEP = NEP gene expression analysis by real-time PCR in dermal fibroblasts; format: cell-based; details: Homo sapiens, NB1RGB, 48 h, read-out: NEP gene expression level
Protocol: as §1, §2, §3

Type I collagen = test: Collagen production rate in culture supernatant by sandwich ELISA; format: cell-based; details: Homo sapiens, NB1RGB fibroblasts, 48 h, OD405/OD570, no-addition group = 100, read-out: Collagen production rate (%) per cell
Protocol: A supernatant of the culture cultured in 2-1 was dispensed into a new 96-well plate and frozen for storage (−80° C.). The collagen production rate in the culture supernatant was measured by sandwich ELISA, and the effect of citronellol on the collagen level was evaluated.
100 μL of culture supernatant diluted 4-fold with PBS(−) was added to a high-binding 96-well plate, and incubated overnight at 4° C. Type I collagen solution (Cat No. 009-001-103, RCK, USA) was used as a standard substance. […] The dye was uniformized within the 96-well plate, and then absorbance (OD405) at 405 nm was measured using a microplate reader.
Setting OD405 of the control group at 100%, the collagen production rate of citronellol was calculated. In addition, the OD405 of the control and citronellol were each divided by OD570 measured in 2-2 to calculate the collagen production rate per cell. Setting the collagen production rate per cell in the control group at 100%, the collagen production rate of citronellol per cell was calculated.

[1] = tested on: human neonatal dermal fibroblast cell line NB1RGB
Protocol: After 24 h, the medium was removed and replaced with a medium to which citronellol (CAS number: 106-22-9, Wako Pure Chemical Industries, Ltd.) was added so as to have the final concentration shown in Table 3 below, and the cells were further cultured within the CO2 incubator for 48 h. As the control, a medium not comprising citronellol was used.
According to the following method, the effect of citronellol on proliferation of dermal fibroblasts was evaluated.
A 96-well plate from which the medium was removed was washed with 100 μL of PBS(−). 100 μL of 0.5 mg/mL 3-(4,5-dimethylthiazol-2-yl)-2,5-diphenyltetrazolium bromide (MTT, CAS No. 298-93-1, Sigma-Aldrich, USA) solution was then added and incubated within a CO2 incubator for 2 h. After removing the MTT solution and washing with 100 μL of PBS(−), 200 μL of 2-propanol (CAS No. 67-63-0, Wako, Japan) was added to dissolve the insoluble formazan. A dye was uniformly dispersed within the 96-well plate, and then absorbance (OD570) at 570 nm was measured using a microplate reader (SPARK (registered trademark), 10M TECAN, Switzerland). Setting OD570 of the control group at 100%, OD570 of the citronellol-added group, i.e., the effect on cell proliferation, was calculated as the cell-activating effect (%) of citronellol. In the analysis of cell-activating effect, the average value of 96-well plate 9×3 wells was used for each treatment group.

Row | SMILES | fold induction at 50 µM (MMP-1) | fold induction at 50 µM (NEP) | activity at 50 µM (Type I collagen) | cell-activating effect / toxicity (proliferation of fibroblasts, MTT) [1]
1 | CCCCCOC(=O)CCC [Amyl butyrate] | 0.24 | 0.43 |  | 
2 | CC(C)=CCCC(C)CCO (stereo not shown) [Citronellol] | 0.25 | 0.85 | 102% | no cell-activating effect or toxicity
3 | CC(C)=CCCC(C)=CCCC(C)=CCO [Farnesol] | 0.22 | 0.44 |  | 
4 | c1ccc2[nH]ccc2c1 [Indole] | 0.36 | 0.4 |  | 
